From ChEMBL document CHEMBL4396870, “Pharmacological Chaperones for the Treatment of α-Mannosidosis” (J Med Chem, 2019)
Numbering of substitutions follows the chain as printed.

What was measured:
[1] = system: T1, Lysosomal alpha-mannosidase (Homo sapiens), O00754 [H72L]; assay: Chaperone activity at human Lysosomal alpha-mannosidase H72L mutant transfected in human […] knockout HAP1 cells assessed as enzyme activity enhancement at 0.2 uM incubated for 96 hrs relative to control
T1 sequence (whole entry): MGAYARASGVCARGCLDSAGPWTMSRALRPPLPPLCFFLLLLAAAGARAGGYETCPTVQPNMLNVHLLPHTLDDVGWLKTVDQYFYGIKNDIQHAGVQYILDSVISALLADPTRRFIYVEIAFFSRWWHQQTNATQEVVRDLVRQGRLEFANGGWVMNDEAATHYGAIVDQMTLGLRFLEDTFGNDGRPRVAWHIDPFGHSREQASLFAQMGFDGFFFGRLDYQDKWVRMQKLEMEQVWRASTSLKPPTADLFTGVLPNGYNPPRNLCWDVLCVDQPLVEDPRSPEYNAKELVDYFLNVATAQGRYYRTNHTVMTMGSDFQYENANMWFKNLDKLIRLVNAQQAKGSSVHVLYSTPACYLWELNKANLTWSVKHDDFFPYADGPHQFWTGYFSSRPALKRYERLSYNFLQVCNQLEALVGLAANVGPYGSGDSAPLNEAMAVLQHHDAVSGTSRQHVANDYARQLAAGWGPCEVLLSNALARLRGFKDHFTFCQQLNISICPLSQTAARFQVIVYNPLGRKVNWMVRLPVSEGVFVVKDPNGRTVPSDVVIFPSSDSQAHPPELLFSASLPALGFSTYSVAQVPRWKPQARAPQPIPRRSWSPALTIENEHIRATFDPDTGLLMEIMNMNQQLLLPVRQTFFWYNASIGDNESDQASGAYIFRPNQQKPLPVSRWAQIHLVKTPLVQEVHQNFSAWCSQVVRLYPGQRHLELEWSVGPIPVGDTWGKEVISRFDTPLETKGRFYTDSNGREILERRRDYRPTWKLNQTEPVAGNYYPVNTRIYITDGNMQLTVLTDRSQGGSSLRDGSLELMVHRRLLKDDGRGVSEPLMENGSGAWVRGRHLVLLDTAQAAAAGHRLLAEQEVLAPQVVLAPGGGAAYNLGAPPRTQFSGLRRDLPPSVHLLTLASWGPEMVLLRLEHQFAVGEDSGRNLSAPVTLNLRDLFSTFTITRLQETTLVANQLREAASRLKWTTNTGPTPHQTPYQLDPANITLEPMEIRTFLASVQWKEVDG

[2] = system: T1, Lysosomal alpha-mannosidase (Homo sapiens), O00754 [H72L]; assay: Chaperone activity at human Lysosomal alpha-mannosidase H72L mutant transfected in human […] knockout HAP1 cells assessed as enzyme activity enhancement at 2 uM incubated for 96 hrs relative to control
[3] = system: T2, Lysosomal alpha-mannosidase (Homo sapiens), O00754 [L565P]; assay: Chaperone activity at human Lysosomal alpha-mannosidase L565P mutant transfected in human […] knockout HAP1 cells assessed as enzyme activity enhancement at 0.2 uM incubated for 96 hrs relative to control
T2 sequence (whole entry): T1 sequence (whole entry) with L72H, L565P

[4] = system: T2, Lysosomal alpha-mannosidase (Homo sapiens), O00754 [L565P]; assay: Chaperone activity at human Lysosomal alpha-mannosidase L565P mutant transfected in human […] knockout HAP1 cells assessed as enzyme activity enhancement at 2 uM incubated for 96 hrs relative to control
[5] = system: T2, Lysosomal alpha-mannosidase (Homo sapiens), O00754 [L565P]; assay: Chaperone activity at human Lysosomal alpha-mannosidase L565P mutant transfected in human […] knockout HAP1 cells assessed as enzyme activity enhancement at 20 uM incubated for 96 hrs relative to control

Row | Activity [1] [%] | Activity [2] [%] | Activity [3] [%] | Activity [4] [%] | Activity [5] [%] | Compound
1 | 48 | 23 | 0 | 8 | 0 | COC[C@H]1O[C@@H]2O[C@H]3[C@H](OC)[C@@H](OC)[C@@H](O[C@H]4[C@H](OC)[C@@H](OC)[C@@H](O[C@H]5[C@H](OC)[C@@H](OC)[C@@H](O[C@H]6[C@H](OC)[C@@H](OC)[C@@H](O[C@H]7[C@H](OC)[C@@H](OC)[C@@H](O[C@H]8[C@H](OC)[C@@H](OC)[C@@H](O[C@H]1[C@H](OC)[C@H]2OC)O[C@@H]8COC)O[C@@H]7COC)O[C@@H]6COC)O[C@@H]5COCc1cn(CCCCCCN[C@@H]2[C@@H](O)[C@@H](O)[C@H](O)[C@H]5COC(=O)N52)nn1)O[C@@H]4COC)O[C@@H]3COC
2 | 0 | 34 | 12 | 14 | 5 | CC(C)(C)OC(=O)NCCCCCCCCCN[C@@H]1[C@@H](O)[C@@H](O)[C@H](O)[C@H]2COC(=O)N21
